According to the supplement of paper PMC13380429:

How the values were obtained:
[1] = test system: A549-ACE2 infected with SARS-CoV-2; assay: cell count relative to DMSO; higher = less toxic; details: 24 h
Caco-2 [2] = assay: cell viability relative to DMSO; higher = less toxic; details: 72 h
Calu-3 [3] = assay: as above; details: 72 h
HepG2 [4] = assay: as above; details: 72 h
U2OS [5] = assay: as above; details: 72 h
Vero E6 [6] = assay: as above; details: 72 h
[7] = test system: A549-ACE2 infected with SARS-CoV-2; assay: SARS-CoV-2 infection rate relative to DMSO; higher = more infection; details: 24 h
A549-ACE2 [8] = assay: drug-induced phospholipidosis relative to tamoxifen; higher = more phospholipidosis
[9] = test system: A549-ACE2 infected with SARS-CoV-2; assay: morphology score (similarity to uninfected cells); higher = more like uninfected cells; details: 24 h
Caco-2 [10] = assay: relative viability EC50 (midpoint between 100% and the lowest measured viability); higher = less toxic; details: 72 h
Calu-3 [11] = assay: as above; details: 72 h
HepG2 [12] = assay: as above; details: 72 h
U2OS [13] = assay: as above; details: 72 h
Vero E6 [14] = assay: as above; details: 72 h
Caco-2 [15] = assay: drug sensitivity score (DSS) for viability; higher = more toxic; extreme values may be limits of the assay; details: 72 h
Calu-3 [16] = assay: as above; details: 72 h
HepG2 [17] = assay: as above; details: 72 h
U2OS [18] = assay: as above; details: 72 h
Vero E6 [19] = assay: as above; details: 72 h
A549-ACE2 [20] = assay: phospholipidosis EC50; higher = less potent phospholipidosis inducer

CCCCCCCCCCC(O)C1C=CC2C(=O)N(c3ccccc3)C(=O)C2N1Nc1ccc([N+](=O)[O-])cc1 (centres undefined) [A12B4C3]
Details | SARS-CoV-2 infection rate, [7] [%] | cell count, [1] [%] | cell viability, Caco-2 [2] [%] | cell viability, Calu-3 [3] [%] | cell viability, HepG2 [4] [%] | cell viability, U2OS [5] [%] | cell viability, Vero E6 [6] [%] | morphology score, [9]
1 nM | – | – | 96.6 | 98.9 | 96.9 | 97.8 | 93.1 | –
10 nM | – | – | 99 | 104 | 91.2 | 104 | 99.9 | –
100 nM | – | – | 85.9 | 98.4 | 99.2 | 95.5 | 98.3 | –
0.3 µM | 92 | 107 | – | – | – | – | – | 0.31
1000 nM | – | – | 90 | 96.2 | 102 | 99 | 106 | –
3 µM | 95 | 105 | – | – | – | – | – | 0.4
10 µM | 68 | 110 | – | – | – | – | – | 0.65
10000 nM | – | – | 92 | 95.6 | 97.7 | 89 | 102 | –
30 µM | 37 | 104 | – | – | – | – | – | 0.6

drug-induced phospholipidosis [%], A549-ACE2 [8]
Details | 0.3 µM | 0.833333 µM | 3.33333 µM | 6.66667 µM | 10 µM | 30 µM
24 h | -2.18 | -1.14 | -1.42 | -1.07 | -2.23 | 12.3
48 h | 0.96 | -1.02 | 1.8 | 1.83 | 2.36 | 7.09
72 h | 1.78 | 0.183 | 1.98 | 2.85 | 2.51 | 10.2

Details | drug sensitivity score | relative viability EC50 [µM]
Caco-2 [10] | – | > 10
Caco-2 [15] | 0.2 | –
Calu-3 [11] | – | > 10
Calu-3 [16] | 0 | –
HepG2 [12] | – | > 10
HepG2 [17] | 0 | –
U2OS [13] | – | > 10
U2OS [18] | 0 | –
Vero E6 [14] | – | > 10
Vero E6 [19] | 0 | –

C=CC(=O)Nc1cccc(C)c1Nc1ncc2cc(-c3c(Cl)c(OC)cc(OC)c3Cl)ccc2n1 [BLU9931]
Details | SARS-CoV-2 infection rate, [7] [%] | cell count, [1] [%] | cell viability, Caco-2 [2] [%] | cell viability, Calu-3 [3] [%] | cell viability, HepG2 [4] [%] | cell viability, U2OS [5] [%] | cell viability, Vero E6 [6] [%] | morphology score, [9]
1 nM | – | – | 103 | 99.4 | 102 | 101 | 106 | –
10 nM | – | – | 105 | 103 | 108 | 104 | 98.8 | –
100 nM | – | – | 97 | 97.5 | 96.3 | 97.4 | 99.8 | –
0.3 µM | 102 | 106 | – | – | – | – | – | 0.15
1000 nM | – | – | 96.8 | 101 | 90.5 | 104 | 97.6 | –
3 µM | 96 | 99 | – | – | – | – | – | 0.3
10 µM | 77 | 75 | – | – | – | – | – | 0.26
10000 nM | – | – | 81 | 53.7 | 34.2 | 43.8 | 85.8 | –
30 µM | 65 | 67 | – | – | – | – | – | 0.43

drug-induced phospholipidosis [%], A549-ACE2 [8]
Details | 0.3 µM | 0.833333 µM | 3.33333 µM | 6.66667 µM | 10 µM | 30 µM
24 h | 1.97 | 0.46 | 11 | 14.3 | 20.1 | 73.6
48 h | 2.96 | 1.66 | 13.1 | – | – | –
72 h | 1.37 | -1.51 | 4.02 | – | – | –

Details | drug sensitivity score | relative viability EC50 [µM]
Caco-2 [10] | – | > 10
Caco-2 [15] | 0.9 | –
Calu-3 [16] | 2.3 | –
HepG2 [12] | – | 2.02
HepG2 [17] | 5.2 | –
U2OS [13] | – | 3.55
U2OS [18] | 2.7 | –
Vero E6 [14] | – | > 10
Vero E6 [19] | 0.4 | –

O=C1/C(=C/c2ccccc2)C[C@@]2(O)[C@H]3Cc4ccc(O)c5c4[C@@]2(CCN3CC2CC2)[C@H]1O5 [BNTX]
Details | SARS-CoV-2 infection rate, [7] [%] | cell count, [1] [%] | cell viability, Caco-2 [2] [%] | cell viability, Calu-3 [3] [%] | cell viability, HepG2 [4] [%] | cell viability, U2OS [5] [%] | cell viability, Vero E6 [6] [%] | morphology score, [9]
1 nM | – | – | 100 | 99.5 | 98.3 | 99.5 | 105 | –
10 nM | – | – | 101 | 95.6 | 99.3 | 102 | 102 | –
0.1 µM | 94 | 101 | – | – | – | – | – | 0.09
100 nM | – | – | 91.2 | 102 | 110 | 95.4 | 103 | –
0.3 µM | 93 | 106 | – | – | – | – | – | 0.34
1 µM | 59 | 108 | – | – | – | – | – | 0.64
1000 nM | – | – | 93.8 | 109 | 84.2 | 97.5 | 96.2 | –
3 µM | 11 | 89 | – | – | – | – | – | 0.68
10000 nM | – | – | 30 | 13.1 | 0.5 | 5.7 | 0.4 | –

drug-induced phospholipidosis [%], A549-ACE2 [8]
Details | 0.3 µM | 0.833333 µM | 3.33333 µM | 6.66667 µM
24 h | 0.73 | 2.81 | 24.9 | 20.5
48 h | 0.39 | 0.51 | 26 | –
72 h | 2.04 | 0.605 | – | –

Details | drug sensitivity score | relative viability EC50 [µM]
Caco-2 [10] | – | 2.43
Caco-2 [15] | 4.9 | –
Calu-3 [11] | – | 3.66
Calu-3 [16] | 4.2 | –
HepG2 [12] | – | 1.94
HepG2 [17] | 8.1 | –
U2OS [13] | – | 2.97
U2OS [18] | 5.6 | –
Vero E6 [14] | – | 2.88
Vero E6 [19] | 6.1 | –

CCN1CCN(Cc2ccc(C(=O)Nc3ccc(C)c(Oc4ccc5c(c4)CC(=O)N5)c3)cc2C(F)(F)F)CC1 [DDR1-IN-1]
Details | SARS-CoV-2 infection rate [%] | cell count [%] | cell viability [%] | morphology score | phospholipidosis EC50 [µM]
A549-ACE2 [20], 24 h | – | – | – | – | 1.39
A549-ACE2 [20], 48 h | – | – | – | – | 3.2
A549-ACE2 [20], 72 h | – | – | – | – | 4.19
Caco-2 [2], 1 nM | – | – | 102 | – | –
Caco-2 [2], 10 nM | – | – | 94.8 | – | –
Caco-2 [2], 100 nM | – | – | 101 | – | –
Caco-2 [2], 1000 nM | – | – | 88.1 | – | –
Caco-2 [2], 10000 nM | – | – | 58 | – | –
Calu-3 [3], 1 nM | – | – | 97.2 | – | –
Calu-3 [3], 10 nM | – | – | 101 | – | –
Calu-3 [3], 100 nM | – | – | 99.2 | – | –
Calu-3 [3], 1000 nM | – | – | 104 | – | –
Calu-3 [3], 10000 nM | – | – | 50.3 | – | –
HepG2 [4], 1 nM | – | – | 96.5 | – | –
HepG2 [4], 10 nM | – | – | 91.4 | – | –
HepG2 [4], 100 nM | – | – | 90.3 | – | –
HepG2 [4], 1000 nM | – | – | 104 | – | –
HepG2 [4], 10000 nM | – | – | 42.5 | – | –
U2OS [5], 1 nM | – | – | 100 | – | –
U2OS [5], 10 nM | – | – | 98.2 | – | –
U2OS [5], 100 nM | – | – | 99.6 | – | –
U2OS [5], 1000 nM | – | – | 94.5 | – | –
U2OS [5], 10000 nM | – | – | 79.8 | – | –
Vero E6 [6], 1 nM | – | – | 97.4 | – | –
Vero E6 [6], 10 nM | – | – | 99.5 | – | –
Vero E6 [6], 100 nM | – | – | 100 | – | –
Vero E6 [6], 1000 nM | – | – | 100 | – | –
Vero E6 [6], 10000 nM | – | – | 72.9 | – | –
[1], 0.1 µM | – | 102 | – | – | –
[1], 0.3 µM | – | 104 | – | – | –
[1], 1 µM | – | 114 | – | – | –
[1], 3 µM | – | 121 | – | – | –
[7], 0.1 µM | 98 | – | – | – | –
[7], 0.3 µM | 96 | – | – | – | –
[7], 1 µM | 61 | – | – | – | –
[7], 3 µM | 26 | – | – | – | –
[9], 0.1 µM | – | – | – | -0.13 | –
[9], 0.3 µM | – | – | – | -0.1 | –
[9], 1 µM | – | – | – | 0.26 | –
[9], 3 µM | – | – | – | 0.78 | –

drug-induced phospholipidosis [%], A549-ACE2 [8]
Details | 0.3 µM | 0.833333 µM | 3.33333 µM | 6.66667 µM | 10 µM | 30 µM
24 h | 10.6 | 33.4 | 86.8 | 106 | 121 | 89.6
48 h | 6.52 | 20.9 | 67.3 | 89.5 | 109 | 118
72 h | 6.39 | 17.7 | 60.8 | 89.3 | 107 | 126

Details | drug sensitivity score | relative viability EC50 [µM]
Caco-2 [15] | 3.9 | –
Calu-3 [16] | 2.3 | –
HepG2 [12] | – | 3.52
HepG2 [17] | 2.8 | –
U2OS [13] | – | > 10
U2OS [18] | 1.3 | –
Vero E6 [19] | 1.1 | –
